The text below walks through data of patent publication US12486300B2, “Mithramycin oxime derivatives having increased selectivity and anti-cancer activity” (University of Kentucky Research Foundation, priority 2018, dated 2025).

The subject of this assay is TC32 Ewing sarcoma cells, expressing EWS-FLI1. Description: Growth inhibition assay, TC32 cells. The assay is classed as cell-based. The settings on record: ratio of GI50 PC3 to TC32. On the procedure:
Growth inhibition assay to assess cytotoxicity in ETS vs non-ETS expressing cells. Cells were seeded in clear 96-well plates (VWR, Radnor, PA). Seeding densities were optimized for each cell line to support 5 days of linear growth. Following a 24 hours attachment period, cells in duplicate wells were treated with half-log increments of respective compounds (0 nM and 0.3 nM-10 μM). Working stocks were prepared from an initial 10 mM drug stock diluted in either 100% ethanol or dimethyl sulfoxide (DMSO). All wells contained a final concentration of 0.1% (v/v) respective organic solvent. Immediately following treatment, cell viability was measured for vehicle control (Day 0) wells. Cell viability was measured in the remaining wells after 72 hours of incubation with compound or vehicle control (Day 3).
Percent viability, relative to the initial cell seeding concentration, was calculated by ((TreatmentDay3−Vehicle ControlDay0)/(Vehicle ControlDay3−Vehicle ControlDay0))×100. Percent cell viability was plotted as a function of compound concentration (Log [M]) and the data were fit using a 3-parameter non-linear model with fixed Hill slope constant and 4-parameter non-linear model with variable Hill slope constant. The model with the best curve fit was used to estimate the GI50 in GraphPad Prism 7.0 software (GraphPad Software, La Jolla, CA). The 3-parameter equation used was Y=Bottom+(Top−Bottom)/(1+10[…]((X−Log[IC50]))). The 4-parameter equation used was Y=Bottom+(Top−Bottom)/(1+10[…]((Log[IC50]−X)*Hillslope)). Top and Bottom are plateaus in the units of the Y-axis (response). IC50 is the response (Y-axis) halfway between Top and Bottom plateaus.
All compounds were tested at least once in multi-well replicates and each experiment included one a control compound (i.e., MTM) to ensure the stable response of the cell lines. The selectivity index was estimated by determining the ratio of GI50 estimates between ETS fusion negative and ETS fusion positive cell lines.
On to `COC(C(=NOCC(=O)Nc1cncnc1)C(O)C(C)O)C1Cc2cc3cc(OC4CC(OC5CC(O)C(O)C(C)O5)C(O)C(C)O4)c(C)c(O)c3c(O)c2C(=O)C1OC1CC(OC2CC(OC3CC(C)(O)C(O)C(C)O3)C(O)C(C)O2)C(O)C(C)O1` (stereo not shown) [MTM (50)], for which the “PC:TC32 (cellular selectivity)” value came out at 2.7.
With `COC(=O)C(Cc1ccccc1)NC(=O)C(Cc1c[nH]c2ccccc12)NC(=O)CON=C(C(O)C(C)O)C(OC)C1Cc2cc3cc(OC4CC(OC5CC(O)C(O)C(C)O5)C(O)C(C)O4)c(C)c(O)c3c(O)c2C(=O)C1OC1CC(OC2CC(OC3CC(C)(O)C(O)C(C)O3)C(O)C(C)O2)C(O)C(C)O1` (stereo not shown) [MTM (51)], the “PC:TC32 (cellular selectivity)” value was 2.2.
Under `COC(=O)C(C)NC(=O)C(Cc1c[nH]c2ccccc12)NC(=O)CON=C(C(O)C(C)O)C(OC)C1Cc2cc3cc(OC4CC(OC5CC(O)C(O)C(C)O5)C(O)C(C)O4)c(C)c(O)c3c(O)c2C(=O)C1OC1CC(OC2CC(OC3CC(C)(O)C(O)C(C)O3)C(O)C(C)O2)C(O)C(C)O1` (stereo not shown) [MTM (52)] stands 6.6; under `CNC(=O)C(Cc1c[nH]c2ccccc12)NC(=O)C(Cc1c[nH]c2ccccc12)NC(=O)CON=C(C(O)C(C)O)C(OC)C1Cc2cc3cc(OC4CC(OC5CC(O)C(O)C(C)O5)C(O)C(C)O4)c(C)c(O)c3c(O)c2C(=O)C1OC1CC(OC2CC(OC3CC(C)(O)C(O)C(C)O3)C(O)C(C)O2)C(O)C(C)O1` (stereo not shown) [MTM (53)], 5.0.
Under `COC(C(=NOCC(=O)NC(Cc1c[nH]c2ccccc12)C(=O)NC(C)CO)C(O)C(C)O)C1Cc2cc3cc(OC4CC(OC5CC(O)C(O)C(C)O5)C(O)C(C)O4)c(C)c(O)c3c(O)c2C(=O)C1OC1CC(OC2CC(OC3CC(C)(O)C(O)C(C)O3)C(O)C(C)O2)C(O)C(C)O1` (stereo not shown) [MTM (55)] stands 2.7.
With `COC(C(=NOCC(=O)NC(Cc1c[nH]c2ccccc12)C(=O)NCc1cnccn1)C(O)C(C)O)C1Cc2cc3cc(OC4CC(OC5CC(O)C(O)C(C)O5)C(O)C(C)O4)c(C)c(O)c3c(O)c2C(=O)C1OC1CC(OC2CC(OC3CC(C)(O)C(O)C(C)O3)C(O)C(C)O2)C(O)C(C)O1` (stereo not shown) [MTM (56)], the “PC:TC32 (cellular selectivity)” value is 1.9.
Consider `COC(C(=NOCC(=O)NC(Cc1c[nH]c2ccccc12)C(=O)NC(Cc1c[nH]c2ccccc12)c1nc(C)no1)C(O)C(C)O)C1Cc2cc3cc(OC4CC(OC5CC(O)C(O)C(C)O5)C(O)C(C)O4)c(C)c(O)c3c(O)c2C(=O)C1OC1CC(OC2CC(OC3CC(C)(O)C(O)C(C)O3)C(O)C(C)O2)C(O)C(C)O1` (stereo not shown) [MTM (58)], for which the “PC:TC32 (cellular selectivity)” value is on record as 2.4.
As for `COC(C(=NOCC(=O)Nc1ccc2[nH]ccc2c1)C(O)C(C)O)C1Cc2cc3cc(OC4CC(OC5CC(O)C(O)C(C)O5)C(O)C(C)O4)c(C)c(O)c3c(O)c2C(=O)C1OC1CC(OC2CC(OC3CC(C)(O)C(O)C(C)O3)C(O)C(C)O2)C(O)C(C)O1` (stereo not shown) [MTM (60)], the figure is 10; as for `COC(=O)c1ccc(NC(=O)CON=C(C(O)C(C)O)C(OC)C2Cc3cc4cc(OC5CC(OC6CC(O)C(O)C(C)O6)C(O)C(C)O5)c(C)c(O)c4c(O)c3C(=O)C2OC2CC(OC3CC(OC4CC(C)(O)C(O)C(C)O4)C(O)C(C)O3)C(O)C(C)O2)c(OCC(C)C)c1` (stereo not shown) [MTM (61)], 5.7.
Turning to `COC(C(=NOCCNC(=O)c1ccc([N+](=O)[O-])c(OCC(C)C)c1)C(O)C(C)O)C1Cc2cc3cc(OC4CC(OC5CC(O)C(O)C(C)O5)C(O)C(C)O4)c(C)c(O)c3c(O)c2C(=O)C1OC1CC(OC2CC(OC3CC(C)(O)C(O)C(C)O3)C(O)C(C)O2)C(O)C(C)O1` (stereo not shown) [MTM (63)], the “PC:TC32 (cellular selectivity)” value came to 13.3.
Under `COC(C(=NOCC(=O)NCc1ccc2cc[nH]c2c1)C(O)C(C)O)C1Cc2cc3cc(OC4CC(OC5CC(O)C(O)C(C)O5)C(O)C(C)O4)c(C)c(O)c3c(O)c2C(=O)C1OC1CC(OC2CC(OC3CC(C)(O)C(O)C(C)O3)C(O)C(C)O2)C(O)C(C)O1` (stereo not shown) [MTM (64)] stands 12.3; under `COC(C(=NOCC(=O)NCc1ccc2[nH]ccc2c1)C(O)C(C)O)C1Cc2cc3cc(OC4CC(OC5CC(O)C(O)C(C)O5)C(O)C(C)O4)c(C)c(O)c3c(O)c2C(=O)C1OC1CC(OC2CC(OC3CC(C)(O)C(O)C(C)O3)C(O)C(C)O2)C(O)C(C)O1` (stereo not shown) [MTM (65)], 20.1; under `COC(C(=NOCC(=O)Nc1ccc2cc[nH]c2c1)C(O)C(C)O)C1Cc2cc3cc(OC4CC(OC5CC(O)C(O)C(C)O5)C(O)C(C)O4)c(C)c(O)c3c(O)c2C(=O)C1OC1CC(OC2CC(OC3CC(C)(O)C(O)C(C)O3)C(O)C(C)O2)C(O)C(C)O1` (stereo not shown) [MTM (66)], 4.2.
`COC(C(=NOCC(=O)Nc1ccc2c(c1)CC(=O)N2)C(O)C(C)O)C1Cc2cc3cc(OC4CC(OC5CC(O)C(O)C(C)O5)C(O)C(C)O4)c(C)c(O)c3c(O)c2C(=O)C1OC1CC(OC2CC(OC3CC(C)(O)C(O)C(C)O3)C(O)C(C)O2)C(O)C(C)O1` (stereo not shown) [MTM (67)]: the “PC:TC32 (cellular selectivity)” value was determined as 3.8.
For the compound `COC(C(=NOCC(=O)Nc1cccc2[nH]ccc12)C(O)C(C)O)C1Cc2cc3cc(OC4CC(OC5CC(O)C(O)C(C)O5)C(O)C(C)O4)c(C)c(O)c3c(O)c2C(=O)C1OC1CC(OC2CC(OC3CC(C)(O)C(O)C(C)O3)C(O)C(C)O2)C(O)C(C)O1` (stereo not shown) [MTM (68)], the “PC:TC32 (cellular selectivity)” value is given as 4.5.
Under `COC(C(=NOCC(=O)Nc1ccc2scnc2c1)C(O)C(C)O)C1Cc2cc3cc(OC4CC(OC5CC(O)C(O)C(C)O5)C(O)C(C)O4)c(C)c(O)c3c(O)c2C(=O)C1OC1CC(OC2CC(OC3CC(C)(O)C(O)C(C)O3)C(O)C(C)O2)C(O)C(C)O1` (stereo not shown) [MTM (69)] stands 11.4.
As for `COC(C(=NOCC(=O)Nc1ccc2ncsc2c1)C(O)C(C)O)C1Cc2cc3cc(OC4CC(OC5CC(O)C(O)C(C)O5)C(O)C(C)O4)c(C)c(O)c3c(O)c2C(=O)C1OC1CC(OC2CC(OC3CC(C)(O)C(O)C(C)O3)C(O)C(C)O2)C(O)C(C)O1` (stereo not shown) [MTM (70)], the figure is 7.2; as for `COC(C(=NOCC(=O)Nc1ccc2[nH]cnc2c1)C(O)C(C)O)C1Cc2cc3cc(OC4CC(OC5CC(O)C(O)C(C)O5)C(O)C(C)O4)c(C)c(O)c3c(O)c2C(=O)C1OC1CC(OC2CC(OC3CC(C)(O)C(O)C(C)O3)C(O)C(C)O2)C(O)C(C)O1` (stereo not shown) [MTM (71)], 3.2.
Under `COC(C(=NOCC(=O)Nc1ccc2[nH]c(C)cc2c1)C(O)C(C)O)C1Cc2cc3cc(OC4CC(OC5CC(O)C(O)C(C)O5)C(O)C(C)O4)c(C)c(O)c3c(O)c2C(=O)C1OC1CC(OC2CC(OC3CC(C)(O)C(O)C(C)O3)C(O)C(C)O2)C(O)C(C)O1` (stereo not shown) [MTM (72)] stands 20.9.
Turning to `COC(C(=NOCC(=O)Nc1ccc2ncccc2c1)C(O)C(C)O)C1Cc2cc3cc(OC4CC(OC5CC(O)C(O)C(C)O5)C(O)C(C)O4)c(C)c(O)c3c(O)c2C(=O)C1OC1CC(OC2CC(OC3CC(C)(O)C(O)C(C)O3)C(O)C(C)O2)C(O)C(C)O1` (stereo not shown) [MTM (74)], the “PC:TC32 (cellular selectivity)” value is listed as 66.6.
Under `COC(C(=NOCC(=O)Nc1ccc2cnccc2c1)C(O)C(C)O)C1Cc2cc3cc(OC4CC(OC5CC(O)C(O)C(C)O5)C(O)C(C)O4)c(C)c(O)c3c(O)c2C(=O)C1OC1CC(OC2CC(OC3CC(C)(O)C(O)C(C)O3)C(O)C(C)O2)C(O)C(C)O1` (stereo not shown) [MTM (75)] stands 118; under `COC(C(=NOCC(=O)Nc1cccc2cc[nH]c12)C(O)C(C)O)C1Cc2cc3cc(OC4CC(OC5CC(O)C(O)C(C)O5)C(O)C(C)O4)c(C)c(O)c3c(O)c2C(=O)C1OC1CC(OC2CC(OC3CC(C)(O)C(O)C(C)O3)C(O)C(C)O2)C(O)C(C)O1` (stereo not shown) [MTMox (73)], 5.9.
